Structures are written as SMILES. Where two headings read alike, the source gives them in different places. Starred links: 1 amine or outer side, 2 acyl side, 3 side chain; linkers in the order of their positions; H or OH if unused. Positions of bridges follow the written chain, without caps; N, C: chain ends. Non-standard residues stand in square brackets, D forms with d. Residues, ends and D or L forms follow the SMILES beside them. *: point of attachment. Orn(4R-OH,5R-OH) = O=C([C@H](C[C@@H](O)[C@@H](O)N[*:3])N[*:1])[*:2]; hTyr(3S-OH,4S-OH) = N[C@H](C(=O)O)[C@H](O)[C@@H](O)c1ccc(O)cc1; Benzoyl(4-dodecyloxy) = CCCCCCCCCCCCOc1ccc(C(=O)*)cc1; Benzoyl(4-OC10H21) = CCCCCCCCCCOc1ccc(C(=O)*)cc1; Pro(3S-OH,4S-Me) = C[C@H]1CN[C@H](C(=O)O)[C@H]1O; Benzoyl(4-octyloxy) = CCCCCCCCOc1ccc(C(=O)*)cc1; X2 = CCCCCCCCCCCCCCS(=O)(=O)c1ccc(C(=O)*)cc1; X5 = CCCCCCCCCCCCS(=O)(=O)c1ccc(C(=O)*)cc1; X28 = CCCCCCCC[S+]([O-])c1ccc(C(=O)*)cc1; X20 = CCCCCCCCCCCCCCOc1ccc(C(=O)*)cc1; X24 = CCCCCCCCCCCCCCOc1cccc(C(=O)*)c1; X27 = CCCCCCCCCCCCOc1cccc(CC(=O)*)c1; X3 = CCCCCCCCCCCCCCSc1ccc(C(=O)*)cc1; X1 = CCCCCCCCCCCCSc1ccc(C(=O)*)cc1; Hyp = O=C(O)[C@@H]1C[C@@H](O)CN1; X6 = CCCCCCCCCCSc1ccc(C(=O)*)cc1; X7 = CCCCCCCCSc1ccc(C(=O)*)cc1

The record followed here is US4293489A, “Derivatives of A-30912A nucleus” (Eli Lilly and Company, priority 1980, dated 1981).

Assay [1] has as its system Candida albicans A-26. Kind of assay: Therapeutic activity against Candida albicans A-26 infection in X-irradiated mice, lowest active dose. The format is in vivo. Conditions: A26, light or radiation study, sc. How it is done:
(§1) The results of in vivo tests to evaluate the effectiveness of the compounds of Examples 3 and 4 against an infection caused by Candida albicans A-26 in mice are given in Table 13, where activity is measured by the ED50 value (the dose in mg/kg. required to cure 50% of the test animals). In a separate test, the results of which are also summarized in Table 13, activity is indicated by the lowest dose at which a significant anti-fungal effect is observed. In this test, groups of male albino mice (specific pathogen free), weighing 18 to 20 grams, are infected intravenously with Candida albicans A-26. The animals are X-irradiated 24 hours prior to infection at about 50 roentgens per minute for 8 minutes (400 total dose) to reduce immune responses to the infecting organism. At 0, 4, and 24 hours post infection each group of mice is given graded doses subcutaneously of the test compound as a suspension in 33% polyethylene glycol (PEG)-water. The day of death for each animal is recorded.
(§2) *Dosage Schedules: A. = 40, 20, 15 and 10 mg/kg; Dosages given 0, 4, and
(§3) 24 hours post injection as suspension of test compound in 30% PEGH2
(§4) O. Number of mice receiving test compounds at each dosage level: 6 mice
(§5) per group. Number of mice in control (untreated) group: 10 mice per group

Assay [2] relates to Candida albicans A-26. Kind of assay: Therapeutic activity against Candida albicans A-26 infection in mice, ED50. It counts as in vivo. Conditions: doses 0, 4 and 24 hours post infection, increase in survival time vs control, Reed-Muench. How it is done: as §1, §2, §3, §4, §5
**As measured by increase in survival time of treated animals versus
control, calculated by method of Reed v Mueuch, American J. Hygiene, 27,

Setting [3] is: X-irradiated mice, subcutaneous at 0, 4 and 24 hours post infection, survival, read-out: Lowest Active Dose.
[4] abbreviates: Candida albicans, A26, sc, read-out: ED50.
The mark [5] stands for this setting: read-out: Lowest Active Dose, X-irradiated mice, subcutaneous at 0, 4 and 24 hours post infection, survival.

On to `CCCCCCCCCCCCCCOc1cccc(C(=O)N[C@H]2C[C@@H](O)[C@@H](O)NC(=O)[C@@H]3[C@@H](O)[C@@H](C)CN3C(=O)[C@H]([C@@H](C)O)NC(=O)[C@H]([C@H](O)[C@@H](O)c3ccc(O)cc3)NC(=O)[C@@H]3C[C@@H](O)CN3C(=O)[C@H]([C@@H](C)O)NC2=O)c1` (X24-[Orn(4R-OH,5R-OH)]T[Hyp][hTyr(3S-OH,4S-OH)]T[Pro(3S-OH,4S-Me)]; lactam 1-C), for which, in the assay on Candida albicans A-26 [1] (setting [3]), the minimal effective dose was above 40 mg/kg. In addition, the ED50 in the assay with Candida albicans A-26 [2] (setting [4]) is above 50 mg/kg.

Consider `CCCCCCCCCCCCOc1cccc(CC(=O)N[C@H]2C[C@@H](O)[C@@H](O)NC(=O)[C@@H]3[C@@H](O)[C@@H](C)CN3C(=O)[C@H]([C@@H](C)O)NC(=O)[C@H]([C@H](O)[C@@H](O)c3ccc(O)cc3)NC(=O)[C@@H]3C[C@@H](O)CN3C(=O)[C@H]([C@@H](C)O)NC2=O)c1` (X27-[Orn(4R-OH,5R-OH)]T[Hyp][hTyr(3S-OH,4S-OH)]T[Pro(3S-OH,4S-Me)]; lactam 1-C), for which the minimal effective dose in the assay with Candida albicans A-26 [1] (setting [3]) worked out at 20 mg/kg. For the same compound, the ED50 in the assay on Candida albicans A-26 [2] (setting [4]) was 7.4 mg/kg.

As to `CCCCCCCC[S+]([O-])c1ccc(C(=O)N[C@H]2C[C@@H](O)[C@@H](O)NC(=O)[C@@H]3[C@@H](O)[C@@H](C)CN3C(=O)[C@H]([C@@H](C)O)NC(=O)[C@H]([C@H](O)[C@@H](O)c3ccc(O)cc3)NC(=O)[C@@H]3C[C@@H](O)CN3C(=O)[C@H]([C@@H](C)O)NC2=O)cc1` (stereo partly drawn) (X28-[Orn(4R-OH,5R-OH)]T[Hyp][hTyr(3S-OH,4S-OH)]T[Pro(3S-OH,4S-Me)]; lactam 1-C), in the assay on Candida albicans A-26 [1] (setting [3]), the minimal effective dose was above 40 mg/kg. Moreover, the ED50 with Candida albicans A-26 [2] (setting [4]) is 56.6 mg/kg.

For `CCCCCCCCOc1ccc(C(=O)N[C@H]2C[C@@H](O)[C@@H](O)NC(=O)[C@@H]3[C@@H](O)[C@@H](C)CN3C(=O)[C@H]([C@@H](C)O)NC(=O)[C@H]([C@H](O)[C@@H](O)c3ccc(O)cc3)NC(=O)[C@@H]3C[C@@H](O)CN3C(=O)[C@H]([C@@H](C)O)NC2=O)cc1` [drawing 151] ({Benzoyl(4-octyloxy)}-[Orn(4R-OH,5R-OH)]T[Hyp][hTyr(3S-OH,4S-OH)]T[Pro(3S-OH,4S-Me)]; lactam 1-C), the minimal effective dose in the assay with Candida albicans A-26 [1] (setting [3]) was below 12.5 mg/kg; in the assay with Candida albicans A-26 [1] (setting [5]), 10 mg/kg.

In the case of `CCCCCCCCCCOc1ccc(C(=O)N[C@H]2C[C@@H](O)[C@@H](O)NC(=O)[C@@H]3[C@@H](O)[C@@H](C)CN3C(=O)[C@H]([C@@H](C)O)NC(=O)[C@H]([C@H](O)[C@@H](O)c3ccc(O)cc3)NC(=O)[C@@H]3C[C@@H](O)CN3C(=O)[C@H]([C@@H](C)O)NC2=O)cc1` [drawing 152] ({Benzoyl(4-OC10H21)}-[Orn(4R-OH,5R-OH)]T[Hyp][hTyr(3S-OH,4S-OH)]T[Pro(3S-OH,4S-Me)]; lactam 1-C), the minimal effective dose in the assay with Candida albicans A-26 [1] (setting [5]) was determined as 5 mg/kg. Moreover, the ED50 with Candida albicans A-26 [2] (setting [4]) is 8 mg/kg.

For the compound `CCCCCCCCCCCCOc1ccc(C(=O)N[C@H]2C[C@@H](O)[C@@H](O)NC(=O)[C@@H]3[C@@H](O)[C@@H](C)CN3C(=O)[C@H]([C@@H](C)O)NC(=O)[C@H]([C@H](O)[C@@H](O)c3ccc(O)cc3)NC(=O)[C@@H]3C[C@@H](O)CN3C(=O)[C@H]([C@@H](C)O)NC2=O)cc1` [drawing 153] ({Benzoyl(4-dodecyloxy)}-[Orn(4R-OH,5R-OH)]T[Hyp][hTyr(3S-OH,4S-OH)]T[Pro(3S-OH,4S-Me)]; lactam 1-C), the minimal effective dose with Candida albicans A-26 [1] (setting [3]) is 2.5 mg/kg; in the assay with Candida albicans A-26 [1] (setting [5]), at most 5 mg/kg. Besides, the ED50 in the assay with Candida albicans A-26 [2] (setting [4]) was below 5 mg/kg; in the assay on Candida albicans A-26 [2] it was 3.9 mg/kg.

For the compound `CCCCCCCCCCCCCCOc1ccc(C(=O)N[C@H]2C[C@@H](O)[C@@H](O)NC(=O)[C@@H]3[C@@H](O)[C@@H](C)CN3C(=O)[C@H]([C@@H](C)O)NC(=O)[C@H]([C@H](O)[C@@H](O)c3ccc(O)cc3)NC(=O)[C@@H]3C[C@@H](O)CN3C(=O)[C@H]([C@@H](C)O)NC2=O)cc1` [drawing 154] (X20-[Orn(4R-OH,5R-OH)]T[Hyp][hTyr(3S-OH,4S-OH)]T[Pro(3S-OH,4S-Me)]; lactam 1-C), the minimal effective dose in the assay on Candida albicans A-26 [1] (setting [5]) came out at 5 mg/kg. Further, in the assay on Candida albicans A-26 [2] (setting [4]), the 50% effective dose (ED50) is 3 mg/kg.

Consider `CCCCCCCCSc1ccc(C(=O)N[C@H]2C[C@@H](O)[C@@H](O)NC(=O)[C@@H]3[C@@H](O)[C@@H](C)CN3C(=O)[C@H]([C@@H](C)O)NC(=O)[C@H]([C@H](O)[C@@H](O)c3ccc(O)cc3)NC(=O)[C@@H]3C[C@@H](O)CN3C(=O)[C@H]([C@@H](C)O)NC2=O)cc1` [drawing 155] (X7-[Orn(4R-OH,5R-OH)]T[Hyp][hTyr(3S-OH,4S-OH)]T[Pro(3S-OH,4S-Me)]; lactam 1-C), for which the minimal effective dose in the assay on Candida albicans A-26 [1] (setting [5]) worked out at 10 mg/kg. Besides, in the assay on Candida albicans A-26 [2] (setting [4]), the ED50 came out at 37.4 mg/kg.

As for `CCCCCCCCCCSc1ccc(C(=O)N[C@H]2C[C@@H](O)[C@@H](O)NC(=O)[C@@H]3[C@@H](O)[C@@H](C)CN3C(=O)[C@H]([C@@H](C)O)NC(=O)[C@H]([C@H](O)[C@@H](O)c3ccc(O)cc3)NC(=O)[C@@H]3C[C@@H](O)CN3C(=O)[C@H]([C@@H](C)O)NC2=O)cc1` [drawing 156] (X6-[Orn(4R-OH,5R-OH)]T[Hyp][hTyr(3S-OH,4S-OH)]T[Pro(3S-OH,4S-Me)]; lactam 1-C), the minimal effective dose with Candida albicans A-26 [1] (setting [3]) was 20 mg/kg. For the same compound, in the assay with Candida albicans A-26 [2] (setting [4]), the ED50 came to 28 mg/kg.

As for `CCCCCCCCCCCCSc1ccc(C(=O)N[C@H]2C[C@@H](O)[C@@H](O)NC(=O)[C@@H]3[C@@H](O)[C@@H](C)CN3C(=O)[C@H]([C@@H](C)O)NC(=O)[C@H]([C@H](O)[C@@H](O)c3ccc(O)cc3)NC(=O)[C@@H]3C[C@@H](O)CN3C(=O)[C@H]([C@@H](C)O)NC2=O)cc1` [drawing 157] (X1-[Orn(4R-OH,5R-OH)]T[Hyp][hTyr(3S-OH,4S-OH)]T[Pro(3S-OH,4S-Me)]; lactam 1-C), the minimal effective dose in the assay on Candida albicans A-26 [1] (setting [3]) was below 1.25 mg/kg. Further, in the assay with Candida albicans A-26 [2] (setting [4]), the 50% effective dose (ED50) stood at 2 mg/kg.

For the compound `CCCCCCCCCCCCCCSc1ccc(C(=O)N[C@H]2C[C@@H](O)[C@@H](O)NC(=O)[C@@H]3[C@@H](O)[C@@H](C)CN3C(=O)[C@H]([C@@H](C)O)NC(=O)[C@H]([C@H](O)[C@@H](O)c3ccc(O)cc3)NC(=O)[C@@H]3C[C@@H](O)CN3C(=O)[C@H]([C@@H](C)O)NC2=O)cc1` [drawing 158] (X3-[Orn(4R-OH,5R-OH)]T[Hyp][hTyr(3S-OH,4S-OH)]T[Pro(3S-OH,4S-Me)]; lactam 1-C), the minimal effective dose in the assay with Candida albicans A-26 [1] (setting [3]) was determined as 2.5 mg/kg. In addition, the ED50 in the assay with Candida albicans A-26 [2] (setting [4]) is 20 mg/kg.

Turning to `CCCCCCCCCCCCS(=O)(=O)c1ccc(C(=O)N[C@H]2C[C@@H](O)[C@@H](O)NC(=O)[C@@H]3[C@@H](O)[C@@H](C)CN3C(=O)[C@H]([C@@H](C)O)NC(=O)[C@H]([C@H](O)[C@@H](O)c3ccc(O)cc3)NC(=O)[C@@H]3C[C@@H](O)CN3C(=O)[C@H]([C@@H](C)O)NC2=O)cc1` [drawing 161] (X5-[Orn(4R-OH,5R-OH)]T[Hyp][hTyr(3S-OH,4S-OH)]T[Pro(3S-OH,4S-Me)]; lactam 1-C), the minimal effective dose in the assay with Candida albicans A-26 [1] (setting [3]) was 20 mg/kg. For the same compound, the 50% effective dose (ED50) in the assay with Candida albicans A-26 [2] (setting [4]) was 53 mg/kg.

On to `CCCCCCCCCCCCCCS(=O)(=O)c1ccc(C(=O)N[C@H]2C[C@@H](O)[C@@H](O)NC(=O)[C@@H]3[C@@H](O)[C@@H](C)CN3C(=O)[C@H]([C@@H](C)O)NC(=O)[C@H]([C@H](O)[C@@H](O)c3ccc(O)cc3)NC(=O)[C@@H]3C[C@@H](O)CN3C(=O)[C@H]([C@@H](C)O)NC2=O)cc1` [drawing 162] (X2-[Orn(4R-OH,5R-OH)]T[Hyp][hTyr(3S-OH,4S-OH)]T[Pro(3S-OH,4S-Me)]; lactam 1-C), for which the minimal effective dose in the assay on Candida albicans A-26 [1] (setting [5]) was 5 mg/kg. In the assay on Candida albicans A-26 [2] (setting [4]), the 50% effective dose (ED50) worked out at 11 mg/kg.

The term ED50 denotes the midpoint of the dose-response relation.
